From patent publication US20250367229A1, “Treatment of Immune-Related Disorders, Kidney Disorders, Liver Disorders, Hemolytic Disorders, and Oxidative Stress-Associated Disorders Using NRH, NARH and Reduced Derivatives Thereof” (MitoPower LLC, priority 2021, published 2025)

Tests used:
CD4^+ T cells [1] = test: Cell death including apoptosis (annexin V, flow cytometry) of CD4+ T cells with depolarized mitochondria; type: cell-based, human; settings: 250 μM, 24 hr, unstimulated or stimulated with anti-CD3 and anti-CD28 antibodies
Description: (§1) PBMCs (10^6 cells per test group) obtained from healthy human adult donors were unstimulated or stimulated with anti-CD3 and anti-CD28 antibodies to induce T-cell activation, in the absence or presence of 250 μM of NRH or NRH-triacetate (NRHTA). Measurements were made at 5, 15 and 24 hr after treatment.
(§2) After the indicated time of incubation, the PBMCs were stained with anti-CD3, anti-CD4 and anti-CD8 antibodies (Biolegend), JC-1 (1 μM, Thermo Fisher) and annexin V (Thermo Fisher) prior to analysis by flow cytometry. Annexin V binds to cell-surface phosphatidylserine, which is a marker for different forms of cell death including apoptosis and necrosis. The stained cells were re-suspended in phosphate-buffered saline (PBS) and acquired in a Cytek Aurora flow cytometer using a FlowJo software (v10) for analysis. About 200,000-300,000 cells were acquired in the flow cytometer for analysis. Standard procedures for spectral compensation were performed to obtain cell populations. Lymphocytes identified by forward and side scatter were gated to obtain CD3^+/CD4^+ and CD3^+/CD8^+ T-cell populations. Those T-cell populations were gated to identify the red and green signals for JC-1 aggregate and monomer, respectively, and annexin V. The percentage of cells staining green by JC-1 monomer was used to determine the percentage of cells with depolarized mitochondria. […]

[2] = Stability in human serum in vitro (absorbance over time); type: in vitro ADME; settings: 100 μM, 37° C.
Description: Three blood samples were collected from healthy human donors with the same blood group in serum separator vacutainer gel tubes. The samples were centrifuged at 1,800 g to separate serum. The serum samples obtained were pooled together into a separate tube.
NR, NRH and NRH-triacetate (NRHTA) were initially dissolved in DMSO and then diluted with normal saline to obtain a 1 mM stock solution of each compound. 100 μL of stock solution was added to 900 μL of pooled serum to assess the stability of the test compound in human serum. 200 μL of saline with 1,800 μL of pooled serum was used to prepare a solution for blanking and as a reference measurement. The stock solutions were diluted in the pooled serum and normal saline to prepare 100 μM solutions of the test compounds.
In previous experiments, spectral scans between 190 nm and 1100 nm were performed to determine absorbance maxima for NR, NRH and NRHTA, which have maximal absorbance at 265 nm, 340 nm and 331 nm, respectively, in solution.
The stability of a test compound in human serum was determined by a change in the concentration of the compound as measured by a change in absorbance at the maximal absorbance wavelength for the compound as a function of time. The test compounds at 100 μM were incubated in human serum at 37° C. Absorbance measurements were made at 0 min (T0), 5 min, 30 min, 120 min, 240 min, 360 min and 1440 min (24 hr). The relative change in absorbance compared to T0 was plotted and used for statistical analysis. The analysis was performed in triplicates.

CD4^+ T cells [3] = test: Ex vivo polyclonal immune activation model: cytokine production in CD4+ T cells; type: cell-based, human; settings: stimulated with anti-CD3 and anti-CD28 antibodies; data not shown
Description: (§3) Heparinized venous blood was collected from healthy human adult donors. Peripheral blood mononuclear cells (PBMCs) were isolated by Ficoll-Hypaque density-gradient centrifugation. PBMCs (1.0×10^6) were seeded in round-bottom, 96-well plates in 200 μL of medium, unstimulated or stimulated with an anti-CD3 antibody ([…], clone-HIT3a, Biolegend) plus an anti-CD28 antibody (1 μg/mL, clone-CD28.2, Biolegend) to induce T-cell activation, and incubated in cell-culture medium. The PBMCs were unstimulated or stimulated with anti-CD3 and anti-CD28 antibodies to induce T-cell activation, in the absence or presence of 250 μM NRH. After 18 hours of incubation, lymphocytes were analyzed for intracellular levels of IFN-γ, TNF-α and IL-2 by flow cytometry. Intracellular cytokine production was stopped by treating the cells with Golgi stop after 1 hr of treatment.

CD8^+ T cells [4] = test: Mitochondrial membrane depolarization (JC-1, flow cytometry) in CD8+ T cells; type: cell-based, human; settings: 250 μM, 24 hr, unstimulated or stimulated with anti-CD3 and anti-CD28 antibodies
Description: as §1, §2

CD8^+ T cells [5] = test: Cell death including apoptosis (annexin V, flow cytometry) of CD8+ T cells with depolarized mitochondria; type: cell-based, human; settings: 250 μM, 24 hr, unstimulated or stimulated with anti-CD3 and anti-CD28 antibodies
Description: as §1, §2

CD4^+ T cells [6] = test: Mitochondrial membrane depolarization (JC-1, flow cytometry) in CD4+ T cells; type: cell-based, human; settings: 250 μM, 24 hr, unstimulated or stimulated with anti-CD3 and anti-CD28 antibodies
Description: as §1, §2

CD8^+ T cells [7] = test: Ex vivo polyclonal immune activation model: intracellular cytokine production in CD8+ T cells (flow cytometry); type: cell-based, human; settings: stimulated with anti-CD3 and anti-CD28 antibodies; data not shown
Description: as §3

red blood cells (RBCs) = test: H2O2-induced hemolysis in vitro; type: cell-based; settings: 2000, 200 and 20 μM, pre-incubation 1 hr at 37° C., then H2O2 4 hr
Description: Individual test compounds were dissolved in 0.9% normal saline to prepare 0.3 M stock solutions. A 0.3 M stock solution was added to a 20% suspension of washed red blood cells (RBCs) in saline to obtain final concentrations of 2000 μM, 200 μM and 20 μM of the compound. The RBC suspensions were incubated with the test compound at 37° C. for 1 hr prior to testing. A 2.5% H2O2 solution was prepared fresh by dilution with normal saline and chilled at 2-8° C. before use. Each RBC suspension containing the test compound was split into tubes A and B. 250 μL of the chilled H2O2 solution was added to 250 μL of RBC suspension in each tube while maintaining the tubes in an ice bath. The tubes were incubated at 37° C. for 4 hr, and then 4.5 mL of saline or de-ionized water was added to tube A or tube B, respectively. After the tubes were incubated for 10 min, the mixture in the tubes was centrifuged at 1800 g, and then absorbance was measured in the supernatant at 540 nm. The percentage of hemolysis was calculated as: […]

HEK293 cells = test: NADH/NAD+ ratio in H2O2-exposed HEK293 cells (NAD/NADH-Glo); type: cell-based; settings: NRH at 100 and 1000 μM, NR at all tested concentrations (0.01-1000 μM)
Description: HEK293 cells were trypsinized and plated at a density of 60,000 cells per well. The cells were then treated with H2O2 (600 μM prepared with Dulbecco's Modified Eagle Medium [DMEM]) for 30 min. The media was then replaced with serum media (DMEM supplemented with 10% fetal bovine serum [FBS]) containing NRH or NR, and were incubated at 37° C. under 6% CO2 for 30 min or 6 hr. The cells were incubated with the following concentrations of NRH or NR: 0.01, 0.1, 1.0, 10, 100 and 1000 μM. NAD^+ and NADH levels at 30 min and 6 hr were estimated using the NAD/NADH-Glo Promega Bioluminescent assay. The results were expressed as fold change relative to the values obtained with untreated cells.

RBC hemoglobin = test: H2O2-induced oxidative changes of RBC hemoglobin in vitro (spectral scans); type: cell-based, human
Description: A 4 M stock solution of sodium azide was prepared. One mL of the 4 M stock azide solution was diluted with 9 mL of phosphate-buffered saline (PBS, pH 7.4) to obtain a 0.4 M stock solution, which was further diluted with PBS to obtain a 0.01 M working solution of sodium azide. Eight mL of whole blood was collected in buffered acid citrate dextrose tubes from a healthy human donor. PBS was added to 500 μL of whole blood. The samples were centrifuged, and then the supernatant from each tube was discarded to obtain a red blood cell (RBC) pellet. Ten μL of 0.01 M sodium azide working solution was added to 20 μL of RBC suspension. Twenty μL of hydrogen peroxide (H2O2) diluted in PBS was added to the RBC suspension to obtain final concentrations of H2O2 ranging from 0.01 mM to 100 mM. The samples were incubated at 37° C. for 1.5 hr. 950 μL of de-ionized water was added to the samples, which were then incubated for 10 min to lyse the RBCs and obtain hemoglobin upon centrifugation at 1,500 g. Spectral scans of the lysed samples between 200 nm and 1100 nm were obtained in 2 nm increments, using a Systronics® dual-beam UV-spectrophotometer and de-ionized water as a blank. Samples incubated with PBS at 37° C. for 1-1.5 hr were used as controls to establish the oxidative effects of H2O2 on RBC hemoglobin. Absorbance at 576 nm is a measure of hemoglobin concentration in a sample, and oxidation of hemoglobin to methemoglobin results in a drop in absorbance at 576 nm and an increase in absorbance at 630 nm. Fantao et al., Anal. Biochem., 521:11-19, (2017). Stock solutions of NRH (29.6 mM) and NR (18.3 mM) were prepared in 0.9% normal saline. Appropriate quantities of the stock NRH or NR solution and PBS were added to 500 μL of whole blood to obtain final concentrations of NRH or NR ranging from 1 μM to 1000 μM. The whole blood samples with NRH or NR were mixed gently and incubated at 37° C. for 1-1.5 hr. The samples were centrifuged, and then the supernatant was discarded to obtain an RBC pellet for each sample.

[8] = tested on: peripheral blood mononuclear cells (PBMCs); test: Extracellular acidification rate (ECAR, a measure of glycolysis) in activated PBMCs, Seahorse XF; type: cell-based, human; settings: 250 μM, 4 hr, PBMCs stimulated with anti-CD3 and anti-CD28 antibodies
Description: PBMCs (1.5×10^6) obtained from a healthy human adult donor were unstimulated or stimulated with anti-CD3 and anti-CD28 antibodies (1 μg/mL each) to induce T-cell activation, in the absence or presence of 250 μM NRH for 4 hr. The cells were then washed and plated on poly-D-lysine-coated Seahorse XF microplates at a density of 3×10^5 cells per well (5 replicates). The plates were centrifuged briefly and incubated at 37° C. in a non-CO2 incubator for 30 min to settle the cells in the bottom of the plate. Extracellular acidification rate (ECAR, a measure of glycolysis) and oxygen consumption rate (OCR, a measure of oxidative phosphorylation) were determined using a Seahorse XF cell mito stress test kit and a Seahorse Xfe96 analyzer (Agilent Technologies, Santa Clara, California) under basal condition or in response to 1.0 μM oligomycin (an inhibitor of ATP synthase), 1.5 μM carbonyl cyanide-p-trifluoromethoxyphenylhydrazone (FCCP, a mitochondrial uncoupler), 0.5 μM rotenone (an inhibitor of electron transport at complex I) and antimycin A (an inhibitor of electron transport at cytochrome c reductase). PBMCs include monocytes and lymphocytes including T cells, B cells and natural killer cells.

Structure (SMILES) | cell death including apoptosis of CD4+ T cells with depolarized mitochondria (CD4^+ T cells [1]) | compound remaining intact in human serum after 6 hr ([2]; 6 hr) | compound remaining intact in human serum after 24 hr ([2]; 24 hr) | stability in human serum compared with NR ([2]; up to 24 hr, p<0.05) | production of pro-inflammatory cytokines (e.g., TNF-α, IL-2, IFN-γ) by CD4+ T cells (CD4^+ T cells [3]) | mitochondrial membrane depolarization in CD8+ T cells (CD8^+ T cells [4]) | cell death including apoptosis of CD8+ T cells with depolarized mitochondria (CD8^+ T cells [5]) | mitochondrial membrane depolarization in CD4+ T cells (CD4^+ T cells [6]) | production of pro-inflammatory cytokines (e.g., TNF-α, IL-2, IFN-γ) by CD8+ T cells (CD8^+ T cells [7]) | H2O2-induced hemolysis (red blood cells (RBCs)) | compound remaining intact in human serum within 5 min ([2]; within 5 min of addition, absorbance at 265 nm) | NADH/NAD+ ratio in HEK293 cells exposed to H2O2 (HEK293 cells; 30 min of incubation) | NADH/NAD+ ratio in HEK293 cells exposed to H2O2 (HEK293 cells; 6 hr of incubation) | A576/A630 ratio (a measure of the hemoglobin/methemoglobin ratio) (RBC hemoglobin; RBCs exposed to 1 mM H2O2, 1 μM or 100 μM NRH, NR data not shown) | protection of hemoglobin from 1 mM H2O2-induced oxidative changes (amplitude of absorbance peaks at 576, 540, 434, 348 and 270 nm) (RBC hemoglobin; pre-incubation of RBCs with 1, 10 and 100 µM) | extracellular acidification rate (ECAR, a measure of glycolysis) in activated PBMCs [8]
CC(=O)OC[C@H]1O[C@@H](N2C=CCC(C(N)=O)=C2)[C@H](OC(C)=O)[C@@H]1OC(C)=O [NRH-triacetate, N-(2,3,5-tri-O-acetyl-β-D-ribofuranosyl)dihydronicotinamide] | reduced cell death | Most of both NRH and NRH-triacetate remained intact | about 50% | much more stable | reduced production of pro-inflammatory cytokines | significantly induced | reduced cell death | significantly induced | reduced production of pro-inflammatory cytokines | reduced H2O2-induced hemolysis | – | – | – | – | – | –
NC(=O)c1ccc[n+]([C@@H]2O[C@H](CO)[C@@H](O)[C@H]2O)c1 [NR, nicotinamide riboside, reference compound] | – | – | – | – | – | – | – | – | – | neither NR (MP-02) nor NR-triacetate (MP-39) at any concentration tested, reduced H2O2-induced hemolysis | most of NR did not remain intact | did not significantly affect | did not significantly affect | did not significantly affect | not with NR (MP02), protected hemoglobin | Unlike NR (data not shown), NRH reduced glycolysis
CC(=O)OC[C@H]1O[C@@H]([n+]2cccc(C(N)=O)c2)[C@H](OC(C)=O)[C@@H]1OC(C)=O.O=S(=O)([O-])C(F)(F)F [NR-triacetate, 3-Carboxamide-N-(2,3,5-tri-O-acetyl-β-D-ribofuranosyl)pyridinium Triflate, reference compound] | – | – | – | – | – | – | – | – | – | neither NR (MP-02) nor NR-triacetate (MP-39) at any concentration tested, reduced H2O2-induced hemolysis | – | – | – | – | – | –
